The test relates to L1210 leukemia ip in BDF1 mice, survival T/C. Briefly: NCI In Vivo Anticancer Drug Screen. Data for tumor model L1210 Leukemia (intraperitoneal) in B6D2F1 (BDF1) mice. Particulars: endpoint: mean survival time, higher = longer survival. In short, it runs like this:
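Ratio derived from survival: compound-dosed mice over vehicle-dosed mice, all bearing a transplantable tumor.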

Setting [1] is: dose: 100.0 mg/kg/injection, schedule: Q04DX003 (ip), vehicle: Klucel (hydroxypropylcellulose) (HPC).
Setting [2] is: dose: 200.0 mg/kg/injection, schedule: Q04DX003 (ip), vehicle: Klucel (hydroxypropylcellulose) (HPC).
[3] abbreviates: dose: 400.0 mg/kg/injection, schedule: Q04DX003 (ip), vehicle: Klucel (hydroxypropylcellulose) (HPC).
[4] abbreviates: dose: 100.0 mg/kg/injection, schedule: Q01DX009 (ip), vehicle: Klucel (hydroxypropylcellulose) (HPC).
The mark [5] stands for this setting: dose: 200.0 mg/kg/injection, schedule: Q01DX009 (ip), vehicle: Klucel (hydroxypropylcellulose) (HPC).
The mark [6] stands for this setting: dose: 100.0 mg/kg/injection, schedule: Q01DX001 (ip), vehicle: carboxymethylcellulose (CMC).
Where [7] appears, read: dose: 200.0 mg/kg/injection, schedule: Q01DX001 (ip), vehicle: carboxymethylcellulose (CMC).
Setting [8] is: dose: 400.0 mg/kg/injection, schedule: Q01DX001 (ip), vehicle: carboxymethylcellulose (CMC).
Where [9] appears, read: dose: 75.0 mg/kg/injection, schedule: Q01DX001 (ip), vehicle: saline.
The mark [10] stands for this setting: dose: 100.0 mg/kg/injection, schedule: Q04DX003 (ip), vehicle: saline with Tween-80.

Structures are written as SMILES. Values joined by “and” are separate entries in the source; they are usually repeats but may differ in a detail not shown here. Equal values may be shown once. Inconclusive results and toxic doses are left out.

T/C data for 23 compounds are collected here from PubChem BioAssay AID248 (DTP/NCI, 2004).

`COC(=O)c1nnn(CN(CN(CN(Cn2nnc(C(=O)OC)c2C(=O)OC)[N+](=O)[O-])[N+](=O)[O-])[N+](=O)[O-])c1C(=O)OC`: the T/C is 108 % of control (dose: 75.0 mg/kg/injection, schedule: Q01DX001 (ip), vehicle: Klucel (hydroxypropylcellulose) (HPC)); 100 % of control (dose: 150.0 mg/kg/injection, schedule: Q01DX001 (ip), vehicle: Klucel (hydroxypropylcellulose) (HPC)); 110 % of control (dose: 300.0 mg/kg/injection, schedule: Q01DX001 (ip), vehicle: Klucel (hydroxypropylcellulose) (HPC)).
For `C[N+](C)(C)c1ccc([N+](=O)[O-])cn1`, where the note is “dose: 100.0 mg/kg/injection, schedule: Q04DX003 (ip), vehicle: saline”, the T/C is 101 % of control.
For the compound `CC(C)(CO)C(O)C(=O)NCCCCC1CCCCC1` (configuration not stated), the T/C runs as follows: under setting [1], 98 % of control; under setting [2], 93 % of control; under setting [3], 88 % of control.
Consider `CCN1CC2c3cc(OC)c(OC)cc3CC(c3ccccc3)C2C1` (configuration not stated), for which the T/C was 98 % of control (dose: 12.5 mg/kg/injection, schedule: Q01DX009 (ip), vehicle: saline with Tween-80) and 95 % of control (dose: 25.0 mg/kg/injection, schedule: Q01DX009 (ip), vehicle: saline with Tween-80).
On to `C/C(=N\NC(=O)c1ccccc1)c1ccc(-c2ccccc2)cc1`, for which the T/C by setting is: under setting [4], 94 % of control; under setting [5], 105 % of control; (dose: 400.0 mg/kg/injection, schedule: Q01DX009 (ip), vehicle: Klucel (hydroxypropylcellulose) (HPC)) 94 % of control.
Take `N/N=C(\N)NN`: the T/C is 102 % of control (dose: 15.0 mg/kg/injection, schedule: Q01DX Z (ip), vehicle: methylcellulose (MC)); 100 % of control (dose: 30.0 mg/kg/injection, schedule: Q01DX Z (ip), vehicle: methylcellulose (MC)); 102 % of control (dose: 60.0 mg/kg/injection, schedule: Q01DX Z (ip), vehicle: methylcellulose (MC)); 105 % of control (dose: 120.0 mg/kg/injection, schedule: Q01DX Z (ip), vehicle: methylcellulose (MC)); 114 % of control (dose: 240.0 mg/kg/injection, schedule: Q01DX Z (ip), vehicle: methylcellulose (MC)); 95 % of control (dose: 240.0 mg/kg/injection, schedule: Q01DX Z (oral), vehicle: methylcellulose (MC)). Besides, the T/C runs as follows: (dose: 420.0 mg/kg/injection, schedule: Q01DX Z (oral), vehicle: methylcellulose (MC)) 100 % of control; (dose: 480.0 mg/kg/injection, schedule: Q01DX Z (ip), vehicle: methylcellulose (MC)) 103 % of control; (dose: 600.0 mg/kg/injection, schedule: Q01DX Z (oral), vehicle: methylcellulose (MC)) 105 % of control; (dose: 720.0 mg/kg/injection, schedule: Q01DX Z (ip), vehicle: methylcellulose (MC)) 119 % of control.
As for `CN(C)c1ccc(C=Nc2cccc(Cl)c2)cc1`, the T/C under setting [1] is 91 % of control, the T/C under setting [2] was 93 % of control and the T/C under setting [3] is 91 % of control.
In the case of `COc1ccc(/C(=C(/CC(=O)O)C(=O)OC(C)(C)C)c2cc(OC)c(OC)c(OC)c2)cc1OC`, the T/C is 96 % of control under setting [6], 102 % of control under setting [7] and 97 % of control under setting [8].
In the case of `CC(=O)Nc1ncc(/C=C/c2ccc([N+](=O)[O-])cc2)c(NC(C)=O)n1`, the T/C is 100 % of control (dose: 100.0 mg/kg/injection, schedule: Q01DX001 (ip), vehicle: Klucel (hydroxypropylcellulose) (HPC)); 87 % of control (dose: 200.0 mg/kg/injection, schedule: Q01DX001 (ip), vehicle: Klucel (hydroxypropylcellulose) (HPC)); 87 % of control (dose: 400.0 mg/kg/injection, schedule: Q01DX001 (ip), vehicle: Klucel (hydroxypropylcellulose) (HPC)).
With `COc1ccc2c3c1OC1C(=O)CCC4C(C2)N(C)CCC314` (configuration not stated), the T/C under setting [9] is 94 % of control.
Take `c1ccc(C(CCN2CCCC2)c2ccccn2)cc1` (configuration not stated): the T/C was 90 % of control (dose: 44.0 mg/kg/injection, schedule: Q01DX Z (ip), vehicle: saline) and 89 % of control (dose: 66.0 mg/kg/injection, schedule: Q01DX Z (ip), vehicle: saline).
For `CN(CCc1cnc2nc(N)[nH]c(=O)c2n1)c1ccc(C(=O)O)cc1`, the T/C is, setting by setting: under setting [9], 90 % of control; (dose: 150.0 mg/kg/injection, schedule: Q01DX001 (ip), vehicle: saline) 95 % of control; (dose: 300.0 mg/kg/injection, schedule: Q01DX001 (ip), vehicle: saline) 94 % of control.
Consider `Cc1ccc(C[n+]2cc([O-])on2)cc1C`, for which the T/C is, setting by setting: (dose: 100.0 mg/kg/injection, schedule: Q01DX Z (ip), vehicle: saline) 105 % of control; (dose: 200.0 mg/kg/injection, schedule: Q01DX Z (ip), vehicle: saline) 93 % of control.
`CC(C)C(CN)(CCN1CCCCC1)Cc1cccc2ccccc12` (configuration not stated): the T/C under setting [10] is 97 % of control.
In the case of `O=[N+]([O-])c1c(Cl)nc2sccn12`, the T/C is 106 % of control (dose: 100.0 mg/kg/injection, schedule: Q04DX002 (ip), vehicle: saline); 109 % of control (dose: 200.0 mg/kg/injection, schedule: Q04DX002 (ip), vehicle: saline); 90 % of control (dose: 400.0 mg/kg/injection, schedule: Q04DX002 (ip), vehicle: saline).
Consider `O=P(O)(O)CCC(F)(F)C(F)(F)C(F)(F)C(F)(F)C(F)(F)C(F)(F)C(F)(F)F`, for which, under setting [9], the T/C is 96 % of control.
In the case of `Cc1ccc(S(=O)(=O)NCCC(=N)N)cc1`, the T/C by setting is: (dose: 100.0 mg/kg/injection, schedule: Q01DX001 (ip), vehicle: saline) 93 % of control; (dose: 200.0 mg/kg/injection, schedule: Q01DX001 (ip), vehicle: saline) 101 % of control.
For `CCOC(OCC)C(=O)NNC(C)C`, the T/C (dose: 25.0 mg/kg/injection, schedule: Q01DX009 (ip), vehicle: saline) is 95 % of control; the T/C (dose: 50.0 mg/kg/injection, schedule: Q01DX009 (ip), vehicle: saline) is 97 % of control; the T/C (dose: 100.0 mg/kg/injection, schedule: Q01DX009 (ip), vehicle: saline) was 108 % of control.
With `Cc1ccccc1N(C)C`, the T/C (dose: 50.0 mg/kg/injection, schedule: Q04DX002 (ip), vehicle: saline with Tween-80) was 106 % of control; the T/C (dose: 100.0 mg/kg/injection, schedule: Q04DX002 (ip), vehicle: saline with Tween-80) is 98 % of control; the T/C (dose: 200.0 mg/kg/injection, schedule: Q04DX002 (ip), vehicle: saline with Tween-80) is 92 % of control.
Turning to `C(=N\N1CCN(/N=C/c2cccc3ccccc23)CC1)/c1cccc2ccccc12`, the T/C under setting [6] is 93 % of control, the T/C under setting [7] is 90 % of control and the T/C under setting [8] is 88 % of control.
Take `CCNc1ccc([N+](=O)[O-])cn1`: the T/C is, setting by setting: under setting [4], 104 % of control; under setting [5], 106 % of control.
`O=S(OCCCl)OCCCl`: the T/C (dose: 75.0 mg/kg/injection, schedule: Q04DX003 (ip), vehicle: Klucel (hydroxypropylcellulose) (HPC)) was 91 % of control; the T/C (dose: 150.0 mg/kg/injection, schedule: Q04DX003 (ip), vehicle: Klucel (hydroxypropylcellulose) (HPC)) was 102 % of control; the T/C (dose: 300.0 mg/kg/injection, schedule: Q04DX003 (ip), vehicle: Klucel (hydroxypropylcellulose) (HPC)) is 98 % of control.
For the compound `COc1cc([N+](=O)[O-])c(Cl)cc1NS(=O)(=O)c1ccccc1`, the T/C (dose: 100.0 mg/kg/injection, schedule: Q01DX009 (ip), vehicle: saline with Tween-80) is 100 % of control; the T/C under setting [10] was 97 % of control; the T/C (dose: 133.0 mg/kg/injection, schedule: Q04DX003 (ip), vehicle: saline with Tween-80) is 95 % of control and 89 % of control; the T/C (dose: 200.0 mg/kg/injection, schedule: Q01DX009 (ip), vehicle: saline with Tween-80) is 103 % of control; the T/C (dose: 300.0 mg/kg/injection, schedule: Q04DX003 (ip), vehicle: saline with Tween-80) is 95 % of control and 92 % of control; the T/C (dose: 400.0 mg/kg/injection, schedule: Q01DX009 (ip), vehicle: saline with Tween-80) is 89 % of control. In addition, the T/C (dose: 400.0 mg/kg/injection, schedule: Q04DX003 (ip), vehicle: saline with Tween-80) was 95 % of control.
